# From patent US20260159528A1, “HETEROCYCLIC COMPOUNDS AS TRIGGERING RECEPTOR EXPRESSED ON MYELOID CELLS 2 AGONISTS AND METHODS OF USE” (Vigil Neuroscience, Inc., priority 2021, published 2026)
# Target: T1, human TREM2 (Homo sapiens, UniProt Q9NZC2)
# T1 construct: expressed in transfected cells; host or cells: HEK293T
# Assay: TREM2 agonist potency by cellular Syk phosphorylation (AlphaLisa) in HEK293T-hTREM2 cells
# Assay type: cell-based
# Details: Table D-2; HEK293 cells expressing human TREM2 and DAP12; pSyk AlphaLisa
# Experimental: In vitro Measurement of Triggering Receptor Expressed on Myeloid Cells 2 activity using cellular phosphorylation of Spleen Tyrosine Kinase (“Syk”) Assays
# Measurement of TREM2 agonist potency was done using a HEK cell line expressing human TREM2 and DAP12 (HEK293T-hTREM2 cells). Binding of small molecules to, and activation of, TREM2 increases the phosphorylation of Syk. The resultant levels of Syk phosphorylation are measured using a commercial AlphaLisa reagent kit. To perform the assay, HEK-hTREM2 cells were plated at 14,000 cells per well in a 384 well plate, in 25 µL of complete growth media and incubated at 37° C., 5% CO2 for 20-24 hours.
# Prior to the assay, test compounds were diluted in the 384 well plates in assay buffer and allowed to equilibrate for 30 minutes. Growth media was removed from cell plates by inversion on blotting paper, and 25 μL of test articles in assay buffer was added to cells. Cells were incubated for 45 minutes at room temperature. After 45 minutes, assay buffer was removed and 10 μL of lysis buffer was added. Plates were shaken for 20 minutes at 350 RPM at room temperature. After complete lysis, AlphaLisa reagents were added to the lysate, and fluorescence intensity was measured using a Perkin Elmer Envision plate reader. Intensities were used to generate a standard curve, and % activation was calculated. Curve fitting was performed using Prism v9 software, log(agonist) vs response—variable slope (four parameters), and EC50s were calculated from the curve fit.
# The results presented in Table D have been generated with the in vitro assay described above. This assay may be used to test any of the compounds described herein to assess and characterize a compound's ability to act as an agonist of TREM2.
# T1 sequence (Q9NZC2 19-230): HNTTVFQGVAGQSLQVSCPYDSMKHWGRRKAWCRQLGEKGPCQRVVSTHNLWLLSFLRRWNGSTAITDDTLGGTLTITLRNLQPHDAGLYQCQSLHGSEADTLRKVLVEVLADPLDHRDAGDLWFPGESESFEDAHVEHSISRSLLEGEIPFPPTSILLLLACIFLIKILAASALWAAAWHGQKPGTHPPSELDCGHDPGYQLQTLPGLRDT
# T1 sequence (O43914 22-113 partner): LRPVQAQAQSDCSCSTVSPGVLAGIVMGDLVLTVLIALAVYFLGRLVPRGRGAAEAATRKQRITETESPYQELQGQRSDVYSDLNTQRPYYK
row,Structure (SMILES),EC50 [µM]
1,"CN(C)c1nc2nc(C3CCOC(c4ccc(=O)n(C)c4)C3)nc(-c3ccc(F)cc3F)c2s1 (racemic) [Compound I-288, 5-[4-[7-(2,4-difluorophenyl)-2-(dimethylamino)thiazolo[4,5-d]pyrimidin-5-yl]tetrahydropyran-2-yl]-1-methyl-pyridin-2-one]",≤ 0.05
2,"CN(C)c1nc2nc([C@@H]3CCO[C@@H](c4ccc(=O)n(C)c4)C3)nc(-c3ccc(F)cc3F)c2s1 (racemic) [Compound I-289, 5-[(2R,4R)-4-[7-(2,4-difluorophenyl)-2-(dimethylamino)thiazolo[4,5-d]pyrimidin-5-yl]tetrahydropyran-2-yl]-1-methyl-pyridin-2-one]",0.05 to 0.5
3,"CNc1nc2nc(N3C[C@@H](C)O[C@@H](c4cnn(C5CC5)c4)C3)nc(-c3ccc(Cl)cc3F)c2s1 (single isomer, unassigned) [Compound I-94]",0.05 to 0.5
4,"CC(=O)N(C)c1nc2nc(N3C[C@@H](C)O[C@@H](c4cnn(C5CC5)c4)C3)nc(-c3ccc(Cl)cc3F)c2s1 (single isomer, unassigned) [Compound I-99]",0.05 to 0.5
5,"C[C@@H]1CN(c2nc(-c3ccc(Cl)cc3F)c3sc(N(C)CCO)nc3n2)C[C@H](c2cnn(C3CC3)c2)O1 (single isomer, unassigned) [Compound I-104]",0.05 to 0.5
6,"CCN(C)c1nc2nc(N3C[C@@H](C)O[C@@H](c4cnn(C5CC5)c4)C3)nc(-c3ccc(Cl)cc3F)c2s1 (single isomer, unassigned) [Compound I-119]",0.5 to 3
7,"CN(C)c1nc2nc([C@H]3CCO[C@@H](c4cnn(C5CC5)c4)C3)nc(-c3ccc(C(F)(F)F)cc3F)c2s1 (single isomer, unassigned) [Compound I-134]",0.05 to 0.5
8,"CN(C)c1nc2nc([C@H]3CCO[C@@H](c4cnn(C5CC5)c4)C3)nc(C3CCCCC3)c2s1 (single isomer, unassigned) [Compound I-174]",0.5 to 3
9,"CN(C)c1nc2nc(N3CCC(F)(F)[C@@H](c4cnn(C5CC5)c4)C3)nc(-c3ccc(C(F)(F)F)cc3F)c2s1 (single isomer, unassigned) [Compound I-199]",0.05 to 0.5
10,"CN(C)c1nc2nc(N3CCC(F)(F)[C@H](c4cnn(C5CC5)c4)C3)nc(-c3ccc(C(F)(F)F)cc3F)c2s1 (single isomer, unassigned) [Compound I-200]",0.05 to 0.5
11,"Cc1cc([C@H]2CN(c3nc(-c4ccc(C(F)(F)F)cc4F)c4sc(N(C)C)nc4n3)CCC2(F)F)ccn1 (single isomer, unassigned) [Compound I-202]",0.05 to 0.5
12,"Fc1cc(C(F)(F)F)ccc1-c1nc([C@@H]2CCO[C@@H](c3cnn(C4CC4)c3)C2)nc2nc(C3CC3)sc12 (single isomer, unassigned) [Compound I-278]",0.5 to 3
13,"C[C@@H]1CN(c2nc(-c3ccc(Cl)cc3F)c3sc(N(C)CC4CC4)nc3n2)C[C@H](c2cnn(C3CC3)c2)O1 [Compound I-109, 7-(4-chloro-2-fluoro-phenyl)-N-(cyclopropylmethyl)-N-methyl-5-[(2S,6R)-2-(1-cyclopropylpyrazol-4-yl)-6-methyl-morpholin-4-yl]thiazolo[4,5-d]pyrimidin-2-amine]",0.05 to 0.5
14,"C[C@@H]1CN(c2nc(-c3ccc(F)cc3F)c3c(ncn3C)n2)C[C@H](c2cnn(C3CC3)c2)O1 [Compound I-124, (2S,6R)-2-(1-cyclopropyl-1H-pyrazol-4-yl)-4-(6-(2,4-difluorophenyl)-7-methyl-7H-purin-2-yl)-6-methylmorpholine]",0.5 to 3
15,CC(C)n1ncc2c(-c3ccc(F)cc3F)nc(N3C[C@@H](C)O[C@@H](c4cnn(C5CC5)c4)C3)nc21 [Compound I-139],0.5 to 3
16,C[C@@H]1CN(c2nc(-c3ccc(F)cc3F)c3c(n2)nc(N(C)C)n3C)C[C@H](c2cnn(C3CC3)c2)O1 [Compound I-144],≤ 0.05

# Now from value to compound:
row,EC50 [µM],Structure (SMILES)
1,0.05 to 0.5,"C[C@@H]1CN(c2nc(-c3ccc(Cl)cc3F)c3sc(N(C)C)nc3n2)C[C@H](c2cnn(C3CC3)c2)O1 (racemic) [Compound I-22, 7-(4-chloro-2-fluoro-phenyl)-N,N-dimethyl-5-[rac-(2S,6R)-2-(1-cyclopropylpyrazol-4-yl)-6-methyl-morpholin-4-yl]thiazolo[4,5-d]pyrimidin-2-amine]"
2,0.05 to 0.5,"CN(C)c1nc2nc(N3CCC(F)(F)C(c4cnn(C5CC5)c4)C3)nc(-c3ccc(C(F)(F)F)cc3F)c2s1 (racemic) [Compound I-185, 5-(3-(1-cyclopropyl-1H-pyrazol-4-yl)-4,4-difluoropiperidin-1-yl)-7-(2-fluoro-4-(trifluoromethyl)phenyl)-N,N-dimethylthiazolo[4,5-d]pyrimidin-2-amine]"
3,0.05 to 0.5,"Cc1cc(C2CN(c3nc(-c4ccc(C(F)(F)F)cc4F)c4sc(N(C)C)nc4n3)CCC2(F)F)ccn1 (racemic) [Compound I-188, 5-(4,4-difluoro-3-(2-methylpyridin-4-yl)piperidin-1-yl)-7-(2-fluoro-4-(trifluoromethyl)phenyl)-N,N-dimethylthiazolo[4,5-d]pyrimidin-2-amine]"
4,0.05 to 0.5,"Cc1cc(C2CCCN(c3nc(-c4ccc(C(F)(F)F)cc4F)c4sc(N(C)C)nc4n3)C2)ccn1 (racemic) [Compound I-196, 7-(2-fluoro-4-(trifluoromethyl)phenyl)-N,N-dimethyl-5-(3-(2-methylpyridin-4-yl)piperidin-1-yl)thiazolo[4,5-d]pyrimidin-2-amine]"
5,≤ 0.05,"CN(C)c1nc2nc([C@H]3CCO[C@@H](c4cnn(C5CC5)c4)C3)nc(-c3ccc(Cl)cc3F)c2s1 (single isomer, unassigned) [Compound I-79]"
6,≤ 0.05,"C[C@@H]1CN(c2nc(-c3ccc(F)cc3F)c3sc(N(C)C)nc3n2)C[C@H](c2cnn(C3CC3)c2)O1 (single isomer, unassigned) [Compound I-84]"
7,0.05 to 0.5,"CN(C)c1nc2nc([C@H]3CCO[C@@H](c4cnn(C5CC5)c4)C3)nc(-c3ccc(F)cc3F)c2s1 (single isomer, unassigned) [Compound I-89]"
8,0.05 to 0.5,"C[C@@H]1CN(c2nc(-c3ccc(Cl)cc3F)c3sc(N(C)CCF)nc3n2)C[C@H](c2cnn(C3CC3)c2)O1 (single isomer, unassigned) [Compound I-114]"
9,0.5 to 3,"CN(C)c1nc2nc([C@@H]3CCO[C@@H](c4cnn(C5CC5)c4)C3)nc(-c3ccc(C(F)(F)F)cc3F)c2s1 (single isomer, unassigned) [Compound I-135]"
10,0.5 to 3,"CN(C)c1nc2nc([C@@H]3CCO[C@@H](c4cnn(C5CC5)c4)C3)nc(C3CCCCC3)c2s1 (single isomer, unassigned) [Compound I-205]"
11,0.05 to 0.5,"Fc1cc(C(F)(F)F)ccc1-c1nc([C@@H]2CCO[C@@H](c3cnn(C4CC4)c3)C2)nc2nc(N3CCC3)sc12 (single isomer, unassigned) [Compound I-248]"
12,≤ 0.05,"Fc1cc(C(F)(F)F)ccc1-c1nc([C@H]2CCO[C@@H](c3cnn(C4CC4)c3)C2)nc2nc(N3CCC3)sc12 (single isomer, unassigned) [Compound I-249]"
13,≤ 0.05,"Fc1cc(C(F)(F)F)ccc1-c1nc([C@H]2CCO[C@@H](c3cnn(C4CC4)c3)C2)nc2nc(C3CC3)sc12 (single isomer, unassigned) [Compound I-279]"
14,0.5 to 3,"Cc1nc2nc([C@@H]3CCO[C@@H](c4cnn(C5CC5)c4)C3)nc(-c3ccc(F)cc3F)c2s1 [Compound I-14, 5-[(2R,4R)-2-(1-cyclopropylpyrazol-4-yl)tetrahydropyran-4-yl]-7-(2,4-difluorophenyl)-2-methyl-thiazolo[4,5-d]pyrimidine]"
15,0.05 to 0.5,"CC(C)n1cc2c(-c3ccc(F)cc3F)nc(N3C[C@@H](C)O[C@@H](c4cnn(C5CC5)c4)C3)nc2n1 [Compound I-129, (2S,6R)-2-(1-cyclopropyl-1H-pyrazol-4-yl)-4-(4-(2,4-difluorophenyl)-2-isopropyl-2H-pyrazolo[3,4-d]pyrimidin-6-yl)-6-methylmorpholine]"

# Same assay, conditions: Table D; HEK293 cells expressing human TREM2 and DAP12; pSyk AlphaLisa
row,EC50 [µM],Structure (SMILES)
1,0.05 to 0.5,"Cc1nc2nc([C@H]3CCO[C@@H](c4cnn(C5CC5)c4)C3)nc(-c3ccc(F)cc3F)c2s1 [Compound 4, 5-((2R,4S)-2-(1-cyclopropyl-1H-pyrazol-4-yl)tetrahydro-2H-pyran-4-yl)-7-(2,4-difluorophenyl)-2-methylthiazolo[4,5-d]pyrimidine]"
2,0.5 to 3,"Cc1nc2nc([C@H]3CCO[C@@H](c4cnn(C5CC5)c4)C3)nc(-c3ccc(F)cc3F)c2o1 [Compound 5, 5-((2R,4S)-2-(1-cyclopropyl-1H-pyrazol-4-yl)tetrahydro-2H-pyran-4-yl)-7-(2,4-difluorophenyl)-2-methyloxazolo[4,5-d]pyrimidine]"
3,3 to 100,"Cc1cn2c(-c3ccc(Cl)cc3F)cc(N3CCOC(c4cnn(C5CC5)c4)C3)nc2n1 (stereo not shown) [Compound I-26, 4-[5-(4-chloro-2-fluoro-phenyl)-2-methyl-imidazo[1,2-a]pyrimidin-7-yl]-2-(1-cyclopropylpyrazol-4-yl)morpholine]"
